Results as given in ChEMBL document CHEMBL1201862, “PubChem BioAssay data set” (2004).
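Cultured in 96-well plates, cells were exposed to test compound for 48 hours across five concentrations. Abbreviation: GI50, concentration required for 50% inhibition of growth.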 Calls of active or inactive are those of the source. No stated cut-off is given here; in the data, active = GI50 up to about 1.1 µM and inactive = higher.

Key:
Assay in all cases: NCI-60 cell line screen, 48 h
A549 = test system: A549
CAKI-1 = test system: CAKI-1
HCT-15 = test system: HCT-15
HL-60 = test system: HL-60
Hs-578T = test system: Hs-578T
LOX IMVI = test system: LOX IMVI
M14 = test system: M14
MCF7 = test system: MCF7
MDA-N = test system: MDA-N
MOLT-4 = test system: MOLT-4
NCI-H23 = test system: NCI-H23
NCI-H460 = test system: NCI-H460
NCI-H522 = test system: NCI-H522
OVCAR-3 = test system: OVCAR-3
RPMI-8226 = test system: RPMI-8226
SF-539 = test system: SF-539
SNB-19 = test system: SNB-19
SR = test system: SR
TK-10 = test system: TK-10
U-251 = test system: U-251

| SMILES | GI50 (A549) | GI50 (CAKI-1) | GI50 (HCT-15) [µM] | GI50 (HL-60) | GI50 (Hs-578T) | GI50 (LOX IMVI) | GI50 (M14) | GI50 (MCF7) | GI50 (MDA-N) | GI50 (MOLT-4) | GI50 (NCI-H23) | GI50 (NCI-H460) | GI50 (NCI-H522) | GI50 (OVCAR-3) | GI50 (RPMI-8226) | GI50 (SF-539) | GI50 (SNB-19) | GI50 (SR) | GI50 (TK-10) | GI50 (U-251) |
| --- | --- | --- | --- | --- | --- | --- | --- | --- | --- | --- | --- | --- | --- | --- | --- | --- | --- | --- | --- | --- |
| COc1cc2cc(C(=O)N3C[C@H](CCl)c4c3cc(N)c3ccccc43)[nH]c2c(OC)c1OC | 1.3 µM (inactive) | < 0.005 µM (active) | 0.005 | 0.0586 µM (active) | 0.0127 µM (active) | 0.519 µM (active) | 0.502 µM (active) | 0.0023 µM (active) | < 0.01 µM (active) | 7.82 µM (inactive) | 0.005 µM (active) | 0.0239 µM (active) | 0.001 µM (active) | 0.555 µM (active) | 0.0275 µM (active) | 0.0284 µM (active) | 0.713 µM (active) | 8.28 µM (inactive) | 0.005 µM (active) | 0.279 µM (active) |
| O=C(O)c1cc(/N=C/c2ccccc2O)cc(C(=O)O)c1 | > 100 µM (inactive) | > 100 µM (inactive) | > 100 | > 100 µM (inactive) | > 100 µM (inactive) | > 100 µM (inactive) | > 100 µM (inactive) | > 100 µM (inactive) | > 100 µM (inactive) | 86.9 µM (inactive) | > 100 µM (inactive) | > 100 µM (inactive) | > 100 µM (inactive) | 15.3 µM (inactive) | > 100 µM (inactive) | > 100 µM (inactive) | > 100 µM (inactive) | > 100 µM (inactive) | > 100 µM (inactive) | > 100 µM (inactive) |
| c1ccc(COC[C@H]2C3OCC([C@H](OCc4ccccc4)[C@H]3OCc3ccccc3)N2Cc2ccccc2)cc1 (stereo not given in full) | > 54.2 µM (inactive) | > 53.7 µM (inactive) | > 45.8 | 8.41 µM (inactive) | > 49.1 µM (inactive) | > 50.6 µM (inactive) | > 54 µM (inactive) | > 56 µM (inactive) | > 53.2 µM (inactive) | 6.44 µM (inactive) | 40.3 µM (inactive) | > 56.4 µM (inactive) | 13.9 µM (inactive) | 17.4 µM (inactive) | 15.8 µM (inactive) | > 59 µM (inactive) | > 49.3 µM (inactive) | 26.8 µM (inactive) | > 52.6 µM (inactive) | 26.2 µM (inactive) |
| O=C(/C=C/c1ccccc1)CCN1CCCCC1 | 54.1 µM (inactive) | 87.9 µM (inactive) | 22.6 | 29.4 µM (inactive) | 30.9 µM (inactive) | 17.5 µM (inactive) | 17.5 µM (inactive) | 27.4 µM (inactive) | 24.9 µM (inactive) | 24.1 µM (inactive) | 24.8 µM (inactive) | 40.7 µM (inactive) | 21.4 µM (inactive) | 31.2 µM (inactive) | 14.7 µM (inactive) | 17.8 µM (inactive) | > 100 µM (inactive) | 25.9 µM (inactive) | 51.3 µM (inactive) | 23.6 µM (inactive) |
| O=C1CC(CC(=O)c2ccc(Br)cc2)C(O)=C1C(=O)c1ccc(Br)cc1 (stereo not given) | > 100 µM (inactive) | > 100 µM (inactive) | > 100 | > 100 µM (inactive) | 50 µM (inactive) | 79.1 µM (inactive) | 85.5 µM (inactive) | > 100 µM (inactive) | > 100 µM (inactive) | 41.7 µM (inactive) | 87.7 µM (inactive) | 50.7 µM (inactive) | 51.6 µM (inactive) | 32.6 µM (inactive) | > 100 µM (inactive) | 56.4 µM (inactive) | 56.2 µM (inactive) | 44.3 µM (inactive) | > 100 µM (inactive) | 45.4 µM (inactive) |
| Cn1cccc1-c1ccc(-c2ccc(CO)[se]2)[se]1 | 15.2 µM (inactive) | 0.188 µM (active) | 12.6 | 7.35 µM (inactive) | 22.7 µM (inactive) | 19.1 µM (inactive) | 16.1 µM (inactive) | 0.906 µM (active) | 8.53 µM (inactive) | 8.79 µM (inactive) | 25.9 µM (inactive) | 10.9 µM (inactive) | 10.2 µM (inactive) | 4.02 µM (inactive) | 7.98 µM (inactive) | 11.5 µM (inactive) | 17.8 µM (inactive) | 17.1 µM (inactive) | 28.1 µM (inactive) | 9.53 µM (inactive) |
| COc1cc(/C=C2/CCCc3ccccc3C2=O)cc(OC)c1OC | 27 µM (inactive) | 18.8 µM (inactive) | 12.6 | 2.72 µM (inactive) | 18.2 µM (inactive) | 15.4 µM (inactive) | 18.7 µM (inactive) | 9.79 µM (inactive) | 9.53 µM (inactive) | 3.46 µM (inactive) | 18.4 µM (inactive) | 20.8 µM (inactive) | 11.3 µM (inactive) | 19.2 µM (inactive) | 2.63 µM (inactive) | 18.6 µM (inactive) | 32.5 µM (inactive) | 2.74 µM (inactive) | 22.5 µM (inactive) | 15.5 µM (inactive) |
| Cc1ccc(S(=O)(=O)N/N=C2\C3CC4CC(C3)C2C4)cc1 (stereo not given) | > 100 µM (inactive) | > 100 µM (inactive) | > 100 | > 100 µM (inactive) | > 100 µM (inactive) | > 100 µM (inactive) | > 100 µM (inactive) | > 100 µM (inactive) | > 100 µM (inactive) | > 100 µM (inactive) | > 100 µM (inactive) | > 100 µM (inactive) | > 100 µM (inactive) | > 100 µM (inactive) | > 100 µM (inactive) | > 100 µM (inactive) | > 100 µM (inactive) | > 100 µM (inactive) | > 100 µM (inactive) | > 100 µM (inactive) |
| O=C(Oc1cncc(Cl)c1)c1cc2ccccc2sc1=O | > 100 µM (inactive) | > 100 µM (inactive) | 38.5 | 47.6 µM (inactive) | 38.9 µM (inactive) | 37.3 µM (inactive) | 33.3 µM (inactive) | 39.4 µM (inactive) | 78.2 µM (inactive) | 23.7 µM (inactive) | 58.7 µM (inactive) | 82.8 µM (inactive) | 19.5 µM (inactive) | 60.5 µM (inactive) | 21.1 µM (inactive) | 18.5 µM (inactive) | 92.5 µM (inactive) | 19.6 µM (inactive) | 76.7 µM (inactive) | 49.8 µM (inactive) |
| CC[C@@]1(O)C(=O)OCc2c1cc1n(c2=O)Cc2c-1nc1ccc(O)cc1c2[Si](C)(C)C(C)(C)C [AR-67] | < 0.01 µM (active) | < 0.01 µM (active) | 0.122 | < 0.01 µM (active) | 0.339 µM (active) | < 0.01 µM (active) | < 0.01 µM (active) | < 0.01 µM (active) | < 0.0132 µM (active) | < 0.01 µM (active) | < 0.01 µM (active) | < 0.01 µM (active) | < 0.01 µM (active) | 0.0261 µM (active) | < 0.0152 µM (active) | < 0.01 µM (active) | < 0.01 µM (active) | < 0.01 µM (active) | 0.443 µM (active) | < 0.01 µM (active) |
